Experimental data as given in ChEMBL document CHEMBL2040827, “Quinolizidinone carboxylic acids as CNS penetrant, selective m1 allosteric muscarinic receptor modulators” (ACS Med Chem Lett, 2010).
Blank lines part the entries; values can stand above or below the compound they belong to. Active and inactive are the calls of the source. No cut-off for these calls is given here.

Assays:
[1] = target: T1, Muscarinic acetylcholine receptor M1 (Homo sapiens) (UniProt P11229); assay: Positive allosteric modulation of human muscarinic M1 receptor expressed in CHO-NFAT cells assessed as potentiation of acetylcholine-induced calcium flux after 1 hr by FLIPR assay; format: functional, cell-based
T1 sequence (whole entry): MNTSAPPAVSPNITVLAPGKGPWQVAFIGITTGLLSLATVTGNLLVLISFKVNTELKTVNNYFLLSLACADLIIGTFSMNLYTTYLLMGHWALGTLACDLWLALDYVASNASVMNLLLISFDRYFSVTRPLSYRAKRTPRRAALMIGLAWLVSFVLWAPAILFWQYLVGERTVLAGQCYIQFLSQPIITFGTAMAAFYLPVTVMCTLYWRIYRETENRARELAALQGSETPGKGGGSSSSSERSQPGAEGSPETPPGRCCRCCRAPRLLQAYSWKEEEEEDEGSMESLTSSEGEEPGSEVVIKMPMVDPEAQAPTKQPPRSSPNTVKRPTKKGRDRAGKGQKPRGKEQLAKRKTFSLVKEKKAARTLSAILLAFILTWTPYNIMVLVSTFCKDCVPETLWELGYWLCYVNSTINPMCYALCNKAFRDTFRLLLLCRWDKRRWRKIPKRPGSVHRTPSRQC

[2] = target: T1, Muscarinic acetylcholine receptor M1 (Homo sapiens); assay: Positive allosteric modulation of human muscarinic M1 receptor expressed in CHO-NFAT cells assessed as potentiation of acetylcholine-induced calcium flux after 1 hr by FLIPR assay relative to control; format: functional, cell-based; parameters: concentration or dose not given beside the values
[3] = (§1) Protein binding in rat plasma; format: ADME, cell-free; conditions: read-out: PPB (converted)
[4] = (§2) Protein binding in human plasma; format: ADME, cell-free; conditions: read-out: PPB (converted)
P-glycoprotein = assay: Passive permeability of the compound assessed as P-glycoprotein-mediated drug transport; format: ADME; conditions: not told
[5] = target: MDR1 (P-glycoprotein, ABCB1) (Homo sapiens, UniProt P08183); assay: Efflux ratio of the compound assessed as ratio of human MDR1-mediated permeability from basolateral to apical over apical to basolateral side of drug transport; format: ADME; conditions: not told
[6] = target: MDR1a (multidrug resistance protein 1a) (Rattus norvegicus, UniProt Q6PSM0); assay: Efflux ratio of the compound assessed as ratio of rat MDR1a-mediated permeability from basolateral to apical over apical to basolateral side of drug transport; format: ADME; conditions: not told
Plasma [7] = assay: Plasma concentration in Sprague-Dawley rat at 10 mg/kg, po; format: ADME, organism-based; parameters: dose 10 mg/kg, route oral; conditions: in vivo
Brain = assay: Drug uptake in Sprague-Dawley rat brain at 10 mg/kg, po; format: ADME, organism-based; parameters: dose 10 mg/kg, route oral; conditions: in vivo, read-out: Drug uptake
[8] = Ratio of drug level in brain to plasma in Sprague-Dawley rat at 10 mg/kg, po; format: ADME, organism-based; parameters: dose 10 mg/kg, route oral; conditions: read-out: BPR
Cerebrospinal fluid = assay: Drug uptake in Sprague-Dawley rat cerebrospinal fluid at 10 mg/kg, po; format: ADME, organism-based; parameters: dose 10 mg/kg, route oral; conditions: in vivo, read-out: Drug uptake
[9] = Ratio of drug uptake in Sprague-Dawley rat cerebrospinal fluid at 10 mg/kg, po to protein binding in rat plasma; format: ADME, organism-based, CSF/Plasma; parameters: dose 10 mg/kg, route oral; conditions: in vivo
[10] = target: Voltage-gated inwardly rectifying potassium channel KCNH2 (Homo sapiens, UniProt Q12809); assay: Inhibition of human ERG
[11] = target: T1, Muscarinic acetylcholine receptor M1 (Homo sapiens); assay: Agonist activity at human muscarinic M1 receptor expressed in CHO-NFAT cells assessed as effect on calcium flux up to 10 uM after 1 hr by FLIPR assay; format: functional, cell-based
[12] = target: T2, Muscarinic acetylcholine receptor M2 (Homo sapiens) (UniProt P08172); assay: Agonist activity at human muscarinic M2 receptor expressed in CHO-NFAT cells assessed as potentiation of acetylcholine-induced calcium flux at up to 100 uM after 1 hr by FLIPR assay; format: functional, cell-based
T2 sequence (whole entry): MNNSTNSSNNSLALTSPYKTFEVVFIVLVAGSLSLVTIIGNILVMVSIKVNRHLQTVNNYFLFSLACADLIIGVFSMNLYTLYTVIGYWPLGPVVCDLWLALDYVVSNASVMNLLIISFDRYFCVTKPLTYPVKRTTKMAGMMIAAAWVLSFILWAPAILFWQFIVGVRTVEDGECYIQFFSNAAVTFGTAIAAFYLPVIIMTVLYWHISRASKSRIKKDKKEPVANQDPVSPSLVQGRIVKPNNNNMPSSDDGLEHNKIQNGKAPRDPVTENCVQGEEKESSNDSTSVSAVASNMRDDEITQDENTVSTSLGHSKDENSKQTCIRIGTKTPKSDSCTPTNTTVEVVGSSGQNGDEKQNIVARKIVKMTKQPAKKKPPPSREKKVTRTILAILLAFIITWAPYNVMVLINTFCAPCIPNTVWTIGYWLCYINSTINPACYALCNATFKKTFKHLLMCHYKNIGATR

[13] = target: Muscarinic acetylcholine receptor M3 (Homo sapiens) (UniProt P20309); assay: Agonist activity at human muscarinic M3 receptor expressed in CHO-NFAT cells assessed as potentiation of acetylcholine-induced calcium flux at up to 100 uM after 1 hr by FLIPR assay; format: functional, cell-based
[14] = target: T3, Muscarinic acetylcholine receptor M4 (Homo sapiens) (UniProt P08173); assay: Agonist activity at human muscarinic M4 receptor expressed in CHO-NFAT cells assessed as potentiation of acetylcholine-induced calcium flux at up to 100 uM after 1 hr by FLIPR assay; format: functional, cell-based
T3 sequence (whole entry): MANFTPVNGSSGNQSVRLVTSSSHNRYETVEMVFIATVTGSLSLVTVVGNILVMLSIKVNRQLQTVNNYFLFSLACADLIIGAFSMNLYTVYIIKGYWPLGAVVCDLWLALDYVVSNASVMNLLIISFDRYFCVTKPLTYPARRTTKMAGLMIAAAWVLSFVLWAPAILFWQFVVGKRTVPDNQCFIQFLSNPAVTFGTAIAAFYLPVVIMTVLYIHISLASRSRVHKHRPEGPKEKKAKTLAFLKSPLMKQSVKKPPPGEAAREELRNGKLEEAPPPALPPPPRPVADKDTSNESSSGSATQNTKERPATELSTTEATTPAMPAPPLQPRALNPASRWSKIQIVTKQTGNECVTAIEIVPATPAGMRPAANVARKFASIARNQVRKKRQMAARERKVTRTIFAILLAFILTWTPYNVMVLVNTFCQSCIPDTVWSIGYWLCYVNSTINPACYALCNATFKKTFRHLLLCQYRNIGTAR

[15] = target: T2, Muscarinic acetylcholine receptor M2 (Homo sapiens); assay: Antagonist activity at human muscarinic M2 receptor expressed in CHO-NFAT cells assessed as inhibition of acetylcholine-induced calcium flux at up to 100 uM after 1 hr by FLIPR assay; format: functional, cell-based
[16] = target: Muscarinic acetylcholine receptor M3 (Homo sapiens) (UniProt P20309); assay: Antagonist activity at human muscarinic M3 receptor expressed in CHO-NFAT cells assessed as inhibition of acetylcholine-induced calcium flux at up to 100 uM after 1 hr by FLIPR assay; format: functional, cell-based
[17] = target: T3, Muscarinic acetylcholine receptor M4 (Homo sapiens); assay: Antagonist activity at human muscarinic M4 receptor expressed in CHO-NFAT cells assessed as inhibition of acetylcholine-induced calcium flux at up to 100 uM after 1 hr by FLIPR assay; format: functional, cell-based
Mus musculus [18] = assay: Inhibition of scopolamine-induced memory deficit in ip dosed contextual fear conditioning memory model of mouse by measuring freezing behavior after 24 hrs […] relative to control; format: functional, organism-based
Mus musculus [19] = assay: Inhibition of scopolamine-induced memory deficit in contextual fear conditioning memory model of mouse by measuring freezing behavior at 30 mg/kg, ip at 7.4 uM of plasma concentration after 24 hrs […] relative to control; format: functional, organism-based; parameters: dose 30 mg/kg
Mus musculus [20] = assay: Inhibition of scopolamine-induced memory deficit in ip dosed contextual fear conditioning memory model of mouse by measuring freezing behavior at 33 uM of plasma concentration after 24 hrs […] relative to control; format: functional, organism-based
[21] = Oral bioavailability in Sprague-Dawley rat at 10 mg/kg; format: ADME, organism-based; conditions: in vivo
[22] = Half life in Sprague-Dawley rat at 10 mg/kg, po and 2 mg/kg, iv; format: ADME, organism-based; conditions: in vivo
[23] = Clearance in Sprague-Dawley rat at 10 mg/kg, po and 2 mg/kg, iv; format: ADME, organism-based; conditions: in vivo
[24] = Oral bioavailability in dog at 10 mg/kg; format: ADME, organism-based, Canis lupus familiaris; conditions: in vivo
[25] = Half life in dog at 10 mg/kg, po and 2 mg/kg, iv; format: ADME, organism-based, Canis lupus familiaris; conditions: in vivo
[26] = Clearance in dog at 10 mg/kg, po and 2 mg/kg, iv; format: ADME, organism-based, Canis lupus familiaris; conditions: in vivo
[27] = Fraction unbound in rat plasma; format: ADME, cell-free
[28] = Fraction unbound in human plasma; format: ADME, cell-free
Plasma [29] = assay: as §1; format: ADME, cell-free
Plasma [30] = assay: as §2; format: ADME, cell-free

Voltage-gated inwardly rectifying potassium channel KCNH2, sequence (Q12809 whole entry): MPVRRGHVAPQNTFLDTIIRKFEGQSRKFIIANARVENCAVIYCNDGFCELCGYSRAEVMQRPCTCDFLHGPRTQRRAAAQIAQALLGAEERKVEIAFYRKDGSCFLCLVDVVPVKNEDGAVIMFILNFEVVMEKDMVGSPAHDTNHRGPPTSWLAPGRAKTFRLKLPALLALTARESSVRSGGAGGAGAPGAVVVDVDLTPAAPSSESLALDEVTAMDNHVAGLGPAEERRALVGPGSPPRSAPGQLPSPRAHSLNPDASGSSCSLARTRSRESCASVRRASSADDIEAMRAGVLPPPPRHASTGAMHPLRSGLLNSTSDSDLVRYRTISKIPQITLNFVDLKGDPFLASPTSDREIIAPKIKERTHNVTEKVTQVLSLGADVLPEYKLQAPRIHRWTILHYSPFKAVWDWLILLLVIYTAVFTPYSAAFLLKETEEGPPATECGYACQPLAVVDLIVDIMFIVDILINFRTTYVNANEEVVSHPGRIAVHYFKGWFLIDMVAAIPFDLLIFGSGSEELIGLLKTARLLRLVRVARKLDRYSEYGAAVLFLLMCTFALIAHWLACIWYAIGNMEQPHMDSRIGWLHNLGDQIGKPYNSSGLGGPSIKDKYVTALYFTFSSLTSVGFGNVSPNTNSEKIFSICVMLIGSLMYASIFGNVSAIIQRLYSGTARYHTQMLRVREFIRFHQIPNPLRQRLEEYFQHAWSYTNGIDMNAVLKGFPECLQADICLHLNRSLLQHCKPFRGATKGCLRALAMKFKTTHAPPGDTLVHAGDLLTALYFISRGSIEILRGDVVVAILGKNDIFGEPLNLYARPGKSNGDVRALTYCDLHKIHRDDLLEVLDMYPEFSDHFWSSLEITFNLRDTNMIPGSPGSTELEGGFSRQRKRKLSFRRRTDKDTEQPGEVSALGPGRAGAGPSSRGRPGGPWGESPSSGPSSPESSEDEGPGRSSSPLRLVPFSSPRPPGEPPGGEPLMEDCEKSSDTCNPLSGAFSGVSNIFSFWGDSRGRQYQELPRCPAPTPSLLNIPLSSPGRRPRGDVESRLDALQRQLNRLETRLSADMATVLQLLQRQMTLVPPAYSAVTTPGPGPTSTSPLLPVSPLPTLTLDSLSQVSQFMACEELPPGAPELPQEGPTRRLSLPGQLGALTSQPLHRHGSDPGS
MDR1 (P-glycoprotein, ABCB1), sequence (P08183 whole entry): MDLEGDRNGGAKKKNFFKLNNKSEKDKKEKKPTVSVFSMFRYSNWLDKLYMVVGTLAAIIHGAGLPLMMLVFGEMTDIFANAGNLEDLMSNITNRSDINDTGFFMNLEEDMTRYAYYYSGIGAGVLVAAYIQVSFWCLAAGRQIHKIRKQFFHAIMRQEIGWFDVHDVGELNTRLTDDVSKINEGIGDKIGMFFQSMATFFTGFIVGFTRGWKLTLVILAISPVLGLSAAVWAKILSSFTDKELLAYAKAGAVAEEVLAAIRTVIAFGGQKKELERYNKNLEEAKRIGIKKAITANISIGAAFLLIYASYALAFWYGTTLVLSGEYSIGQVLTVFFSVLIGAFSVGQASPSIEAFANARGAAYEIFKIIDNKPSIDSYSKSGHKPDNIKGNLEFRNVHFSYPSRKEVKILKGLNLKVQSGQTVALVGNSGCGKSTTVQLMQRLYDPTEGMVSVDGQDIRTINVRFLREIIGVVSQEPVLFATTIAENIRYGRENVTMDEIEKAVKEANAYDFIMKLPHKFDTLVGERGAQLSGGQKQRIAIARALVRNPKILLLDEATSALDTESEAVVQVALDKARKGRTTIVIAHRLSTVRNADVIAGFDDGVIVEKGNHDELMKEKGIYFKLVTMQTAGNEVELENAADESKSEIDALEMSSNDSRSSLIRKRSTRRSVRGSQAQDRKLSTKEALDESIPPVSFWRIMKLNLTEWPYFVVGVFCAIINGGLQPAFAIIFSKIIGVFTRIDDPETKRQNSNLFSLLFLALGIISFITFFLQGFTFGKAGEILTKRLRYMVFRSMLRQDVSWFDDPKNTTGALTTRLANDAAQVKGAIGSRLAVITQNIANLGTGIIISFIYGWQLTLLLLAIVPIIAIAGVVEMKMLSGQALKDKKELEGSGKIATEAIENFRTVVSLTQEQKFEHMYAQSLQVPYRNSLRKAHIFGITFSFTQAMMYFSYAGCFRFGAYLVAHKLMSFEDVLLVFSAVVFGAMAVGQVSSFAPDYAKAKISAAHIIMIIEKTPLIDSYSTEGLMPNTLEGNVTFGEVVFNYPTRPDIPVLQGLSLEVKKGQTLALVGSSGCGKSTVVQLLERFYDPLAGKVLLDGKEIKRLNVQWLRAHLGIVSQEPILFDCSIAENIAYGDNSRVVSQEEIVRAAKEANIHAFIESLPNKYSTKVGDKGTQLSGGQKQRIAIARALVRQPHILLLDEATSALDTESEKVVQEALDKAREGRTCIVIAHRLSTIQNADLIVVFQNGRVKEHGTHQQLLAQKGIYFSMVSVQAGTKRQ
MDR1a (multidrug resistance protein 1a), sequence (Q6PSM0 whole entry): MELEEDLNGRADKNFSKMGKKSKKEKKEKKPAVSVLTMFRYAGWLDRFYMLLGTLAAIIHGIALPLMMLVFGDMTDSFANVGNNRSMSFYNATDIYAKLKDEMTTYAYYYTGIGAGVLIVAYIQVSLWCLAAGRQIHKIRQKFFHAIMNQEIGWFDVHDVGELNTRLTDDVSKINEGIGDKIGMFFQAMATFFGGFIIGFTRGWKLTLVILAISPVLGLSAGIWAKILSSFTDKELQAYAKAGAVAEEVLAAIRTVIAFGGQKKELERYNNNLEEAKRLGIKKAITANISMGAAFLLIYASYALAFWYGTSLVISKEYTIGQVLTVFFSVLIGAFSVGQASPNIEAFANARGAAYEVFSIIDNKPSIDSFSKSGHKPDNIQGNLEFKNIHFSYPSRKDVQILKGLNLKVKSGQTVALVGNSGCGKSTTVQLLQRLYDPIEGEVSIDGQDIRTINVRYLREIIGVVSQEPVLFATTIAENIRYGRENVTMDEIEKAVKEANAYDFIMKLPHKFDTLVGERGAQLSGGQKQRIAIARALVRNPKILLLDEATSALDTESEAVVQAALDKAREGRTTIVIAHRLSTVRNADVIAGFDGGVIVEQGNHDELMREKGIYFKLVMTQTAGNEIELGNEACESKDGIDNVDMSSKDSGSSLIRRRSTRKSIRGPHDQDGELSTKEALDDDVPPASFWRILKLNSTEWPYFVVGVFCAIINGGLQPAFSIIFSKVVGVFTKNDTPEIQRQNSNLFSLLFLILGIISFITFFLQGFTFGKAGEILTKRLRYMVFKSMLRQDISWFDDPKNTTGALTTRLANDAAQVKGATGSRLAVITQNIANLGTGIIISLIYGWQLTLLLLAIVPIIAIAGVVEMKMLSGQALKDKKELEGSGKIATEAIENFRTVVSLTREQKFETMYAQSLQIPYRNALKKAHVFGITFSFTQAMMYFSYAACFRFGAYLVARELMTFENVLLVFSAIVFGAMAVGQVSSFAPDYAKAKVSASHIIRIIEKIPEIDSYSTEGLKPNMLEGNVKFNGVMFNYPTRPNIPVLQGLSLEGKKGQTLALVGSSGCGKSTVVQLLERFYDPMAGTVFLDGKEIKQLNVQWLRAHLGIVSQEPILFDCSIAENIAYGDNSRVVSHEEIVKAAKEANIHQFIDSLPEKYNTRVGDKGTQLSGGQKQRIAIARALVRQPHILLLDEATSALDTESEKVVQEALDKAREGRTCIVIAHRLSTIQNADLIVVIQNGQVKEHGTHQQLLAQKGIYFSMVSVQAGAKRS
Muscarinic acetylcholine receptor M3 (Homo sapiens), sequence (P20309 whole entry, looked up): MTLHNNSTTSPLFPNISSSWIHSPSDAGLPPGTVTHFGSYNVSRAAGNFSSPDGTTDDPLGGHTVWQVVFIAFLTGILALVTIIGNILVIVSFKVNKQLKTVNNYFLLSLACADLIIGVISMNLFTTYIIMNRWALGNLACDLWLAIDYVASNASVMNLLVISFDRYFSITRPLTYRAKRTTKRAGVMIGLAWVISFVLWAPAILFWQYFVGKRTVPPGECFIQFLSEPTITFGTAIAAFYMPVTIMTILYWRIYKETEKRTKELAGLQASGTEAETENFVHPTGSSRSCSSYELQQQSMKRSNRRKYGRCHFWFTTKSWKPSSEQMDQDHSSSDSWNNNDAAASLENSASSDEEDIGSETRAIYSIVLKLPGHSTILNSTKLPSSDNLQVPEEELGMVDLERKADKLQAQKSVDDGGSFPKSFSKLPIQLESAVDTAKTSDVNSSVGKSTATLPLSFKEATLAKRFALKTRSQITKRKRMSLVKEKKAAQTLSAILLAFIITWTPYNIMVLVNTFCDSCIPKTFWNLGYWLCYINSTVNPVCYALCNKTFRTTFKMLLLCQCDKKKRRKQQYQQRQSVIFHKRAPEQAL

Activity [1]: > 100 µM
SMILES: O=C(O)c1cc(CN2CCC(c3ccccc3)C2)c2ccccn2c1=O (stereo unspecified)

Activity [1]: 0.075 µM | Activity [2]: 74% | fraction unbound [3]: 0.015 | fraction unbound [4]: 0.003
SMILES: O=C(O)c1cc(Cc2ccc(-c3cccnc3)cc2)c2ccccn2c1=O

Activity [1]: > 100 µM
SMILES: O=C(O)c1cc(C(=O)c2ccccc2)c2ccccn2c1=O

Activity [1]: 0.52 µM | Activity [2]: 94% | fraction unbound [3]: 0.062 | fraction unbound [4]: 0.134 | Papp (P-glycoprotein): 22 ×10⁻⁶ cm/s | efflux ratio [5]: 0.7 | efflux ratio [6]: 1.9 | concentration (Plasma [7]): 1500 nM | concentration (Brain): 248 nM | Kp [8]: 0.17 | concentration (Cerebrospinal fluid): 85 nM | Ratio [9]: 0.42 | Activity [11]: inactive | Activity [12]: inactive | Activity [13]: inactive | Activity [14]: inactive | inhibition [15]: inactive | inhibition [16]: inactive | inhibition [17]: inactive | bioavailability [21]: 23% | half-life [22]: 6.4 h | clearance [23]: 10.8 mL/min/kg | bioavailability [24]: 33% | half-life [25]: 2.5 h | clearance [26]: 13 mL/min/kg
SMILES: N#Cc1ccc(N2CCN(Cc3cc(C(=O)O)c(=O)n4ccccc34)CC2)cc1
IC50 [10]: 7400 nM | inhibition (Mus musculus [18]): Dose-dependent effect | inhibition (Mus musculus [19]): Active | inhibition (Mus musculus [20]): Active

Activity [1]: 0.13 µM | Activity [2]: 77% | fraction unbound [3]: 0.039 | fraction unbound [4]: 0.065 | fraction unbound [27]: 0.04 | Papp (P-glycoprotein): 16 ×10⁻⁶ cm/s | efflux ratio [5]: 0.1 | efflux ratio [6]: 0.6 | concentration (Plasma [7]): 3650 nM | concentration (Brain): 4580 nM | Kp [8]: 1.3 | concentration (Cerebrospinal fluid): 70 nM | Ratio [9]: 0.32
SMILES: O=C(O)c1cc(CN2CCN(c3ccc(Br)cc3)CC2)c2ccccn2c1=O
IC50 [10]: 2100 nM

Activity [1]: 1.5 µM | Activity [2]: 86% | Papp (P-glycoprotein): < 5 ×10⁻⁶ cm/s | concentration (Plasma [7]): 2070 nM | concentration (Brain): 59 nM | Kp [8]: 0.03 | concentration (Cerebrospinal fluid): 16 nM | Ratio [9]: 0.02
SMILES: O=C(O)c1cc(CN2CCN(c3ccncc3)CC2)c2ccccn2c1=O

SMILES: COc1ccc(Cn2cc(C(=O)O)c(=O)c3ccccc32)cc1
inhibition (Mus musculus [20]): inactive

Activity [1]: 7.6 µM | Activity [2]: 87%
SMILES: O=C(O)c1cc(CN2CCCCC2)c2ccccn2c1=O

Activity [1]: > 100 µM
SMILES: O=C(O)c1cc(C(O)c2ccccc2)c2ccccn2c1=O (stereo unspecified)

Activity [1]: 0.92 µM | Activity [2]: 81%
SMILES: O=C(O)c1cc(Cc2ccccc2)c2ccccn2c1=O

Activity [1]: 0.061 µM | Activity [2]: 78%
SMILES: O=C(O)c1cc(Cc2ccc(-c3ccccn3)cc2)c2ccccn2c1=O

Activity [1]: 0.93 µM | Activity [2]: 52% | fraction unbound [3]: 0.369 | fraction unbound [4]: 0.26 | fraction unbound [27]: > 0.25 | fraction unbound [28]: > 0.25
SMILES: O=C(O)c1cc(CN2CCN(c3ccccc3)CC2)c2ccccn2c1=O

Activity [1]: 1.1 µM | Activity [2]: 89% | fraction unbound [3]: 0.62 | fraction unbound [4]: 0.479
SMILES: O=C(O)c1cc(CN2CCN(c3ccccc3)C(=O)C2)c2ccccn2c1=O

Activity [1]: 0.11 µM | Activity [2]: 86% | PPB (Plasma [29]): ND(Insoluble) | PPB (Plasma [30]): ND(Insoluble)
SMILES: O=C(O)c1cc(Cc2ccc(-c3ccccc3)cc2)c2ccccn2c1=O

Activity [1]: 1.3 µM | Activity [2]: 58%
SMILES: O=C(O)c1cc(CN2CCC(c3ccccc3)CC2)c2ccccn2c1=O

Activity [1]: 0.27 µM | Activity [2]: 67% | fraction unbound [3]: 0.034 | fraction unbound [4]: 0.049 | Papp (P-glycoprotein): 32 ×10⁻⁶ cm/s | efflux ratio [5]: 1.4 | efflux ratio [6]: 1.3 | concentration (Plasma [7]): 1140 nM | concentration (Brain): 3080 nM | Kp [8]: 2.7 | concentration (Cerebrospinal fluid): 14 nM | Ratio [9]: 0.25
SMILES: O=C(O)c1cc(CN2CCN(c3ccc(C(F)(F)F)cc3)CC2)c2ccccn2c1=O
IC50 [10]: 100 nM

Activity [1]: 0.2 µM | Activity [2]: 93%
SMILES: O=C(O)c1cc(Cc2ccc(Cl)cc2)c2ccccn2c1=O
